This note sets out measurements from patent publication US20110201815A1, “FUSED HETEROCYCLIC DERIVATIVE AND USE THEREOF FOR MEDICAL PURPOSES” (KISSEI PHARMACEUTICAL CO., LTD., priority 2008, published 2011).

The target in the first assay is T1, Xanthine oxidase (from bovine milk, Sigma) (Bos taurus, UniProt P80457).
T1 construct: Xanthine oxidase (from bovine milk, Sigma); purchased Sigma; host or cells: bovine milk
T1 sequence (P80457 whole entry): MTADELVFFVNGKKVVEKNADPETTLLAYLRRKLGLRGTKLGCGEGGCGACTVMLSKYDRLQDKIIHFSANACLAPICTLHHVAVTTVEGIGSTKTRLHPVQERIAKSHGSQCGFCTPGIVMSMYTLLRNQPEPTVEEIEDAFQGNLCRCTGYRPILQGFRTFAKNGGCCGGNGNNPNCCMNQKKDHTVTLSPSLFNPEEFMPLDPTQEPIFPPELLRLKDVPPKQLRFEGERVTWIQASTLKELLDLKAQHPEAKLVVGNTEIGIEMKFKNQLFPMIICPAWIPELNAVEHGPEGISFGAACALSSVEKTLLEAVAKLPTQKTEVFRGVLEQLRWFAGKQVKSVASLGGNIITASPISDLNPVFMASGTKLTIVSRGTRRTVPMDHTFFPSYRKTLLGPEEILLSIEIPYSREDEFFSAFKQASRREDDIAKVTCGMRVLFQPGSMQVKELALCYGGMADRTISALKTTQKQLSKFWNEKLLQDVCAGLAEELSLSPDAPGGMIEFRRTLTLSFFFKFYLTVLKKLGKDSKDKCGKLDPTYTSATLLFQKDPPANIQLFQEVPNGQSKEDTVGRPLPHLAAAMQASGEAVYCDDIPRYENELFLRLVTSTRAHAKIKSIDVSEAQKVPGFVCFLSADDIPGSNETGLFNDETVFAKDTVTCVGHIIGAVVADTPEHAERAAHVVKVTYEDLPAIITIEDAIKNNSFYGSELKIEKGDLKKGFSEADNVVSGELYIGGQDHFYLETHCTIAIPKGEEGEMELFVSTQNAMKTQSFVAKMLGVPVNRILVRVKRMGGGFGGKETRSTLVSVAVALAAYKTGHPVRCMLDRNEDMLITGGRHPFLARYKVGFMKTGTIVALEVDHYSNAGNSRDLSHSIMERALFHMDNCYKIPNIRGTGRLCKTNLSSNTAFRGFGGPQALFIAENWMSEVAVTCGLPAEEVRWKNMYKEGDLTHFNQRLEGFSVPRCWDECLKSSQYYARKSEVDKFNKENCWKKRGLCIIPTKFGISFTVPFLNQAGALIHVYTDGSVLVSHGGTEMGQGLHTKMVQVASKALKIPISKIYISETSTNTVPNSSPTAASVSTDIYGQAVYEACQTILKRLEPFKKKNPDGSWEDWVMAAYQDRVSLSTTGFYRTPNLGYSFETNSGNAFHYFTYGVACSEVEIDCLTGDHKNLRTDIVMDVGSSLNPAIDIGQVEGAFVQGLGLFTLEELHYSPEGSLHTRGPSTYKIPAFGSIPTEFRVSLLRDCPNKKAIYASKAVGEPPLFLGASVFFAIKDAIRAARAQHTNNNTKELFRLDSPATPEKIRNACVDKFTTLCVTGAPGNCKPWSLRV
Nature of the assay: Xanthine oxidase inhibitory activity. The assay is classed as biochemical. Conditions: xanthine 200 μM added, 10 minutes at room temperature, absorbance at 290 nm. As for the experimental part: Test compounds were dissolved in DMSO (Wako) at 40 mM concentration and then diluted to intended concentrations with phosphate-buffered saline (PBS).
Xanthine oxidase (from bovine milk, Sigma) was prepared with phosphate-buffered saline (PBS) at 0.02 units/mL, and then the solution was added to 96 well plates at 50 μL/well. In addition, test compounds diluted with PBS were added at 50 μL/well. Xanthine (Wako) at 200 μM prepared with PBS was added at 100 μL/well, and the reaction was measured for 10 minutes at room temperature. […] The absorbance under a condition without xanthine is 0%, and control without test compounds is 100%. Fifty % inhibitory concentration (IC50) of test compounds was calculated (Table 5). Ex. No in the table indicates example number.
With `Cc1nc(-c2cc(C#N)c3c(c2)c(C)cn3CC(C)C)sc1C(=O)O` [Example 7], the IC50 (as a rule, the point on the concentration scale where inhibition reaches its midpoint) is 31 nM.
The same measure, in the same setting: under `CC(C)Cn1ccc2cc(-c3cc(C(=O)O)ccn3)cc([N+](=O)[O-])c21` [Example 9] stands 13 nM; under `Cn1ccc2cc(-c3cc(C(=O)O)ccn3)cc([N+](=O)[O-])c21` [Example 2, 2-(1-Methyl-7-nitro-1H-indole-5-yl) isonicotinic acid], 48 nM.
As for `Cc1nc(-c2cc([N+](=O)[O-])c3c(ccn3C)c2)sc1C(=O)O` [Example 3, 4-Methyl-2-(1-methyl-7-nitro-1H-indole-5-yl) thiazole-5-carboxylic acid], the IC50 is 8 nM.
Same read-out and setting: next, `Cn1ccc2cc(-c3cc(C(=O)O)ccn3)cc(C#N)c21` [Example 12, 2-(7-Cyano-1-methyl-1H-indole-5-yl) isonicotinic acid]: 17 nM; `Cc1nc(-c2cc(C#N)c3[nH]ccc3c2)sc1C(=O)O` [Example 13]: 7 nM; `Cc1nc(-c2cc(C#N)c3c(c2)c(C)cn3C(C)C)sc1C(=O)O` [Example 8]: 10 nM.
The same measure, in the same setting: next, `N#Cc1cc(-c2cc(C(=O)O)ccn2)cc2cc[nH]c12` [Example 11, 2-(7-Cyano-1H-indole-5-yl) isonicotinic acid]: 12 nM; `O=C(O)c1ccnc(-c2cc([N+](=O)[O-])c3occc3c2)c1` [Example 4, 2-(7-Nitrobenzofuran-5-yl) isonicotinic acid]: 254 nM.
On the same count and under the same terms, under `Cc1nc(-c2cc(C#N)c3c(c2)c(C)cn3C)sc1C(=O)O` [Example 1, 2-(7-Cyano-1,3-dimethyl-1H-indole-5-yl)-4-methylthiazole-5-carboxylic acid] stands 19 nM.
In the case of `COCCn1ccc2cc(-c3cc(C(=O)O)ccn3)cc([N+](=O)[O-])c21` [Example 10], the IC50 is 114 nM.

The target of a further assay is T2, human URAT1 (Homo sapiens, UniProt Q96S37).
T2 construct: expressed in transfected cells; host or cells: COS7 cells (RIKEN CELL BANK RCB0539), transient transfection with pcDNA3.1
T2 sequence (Q96S37 1-553): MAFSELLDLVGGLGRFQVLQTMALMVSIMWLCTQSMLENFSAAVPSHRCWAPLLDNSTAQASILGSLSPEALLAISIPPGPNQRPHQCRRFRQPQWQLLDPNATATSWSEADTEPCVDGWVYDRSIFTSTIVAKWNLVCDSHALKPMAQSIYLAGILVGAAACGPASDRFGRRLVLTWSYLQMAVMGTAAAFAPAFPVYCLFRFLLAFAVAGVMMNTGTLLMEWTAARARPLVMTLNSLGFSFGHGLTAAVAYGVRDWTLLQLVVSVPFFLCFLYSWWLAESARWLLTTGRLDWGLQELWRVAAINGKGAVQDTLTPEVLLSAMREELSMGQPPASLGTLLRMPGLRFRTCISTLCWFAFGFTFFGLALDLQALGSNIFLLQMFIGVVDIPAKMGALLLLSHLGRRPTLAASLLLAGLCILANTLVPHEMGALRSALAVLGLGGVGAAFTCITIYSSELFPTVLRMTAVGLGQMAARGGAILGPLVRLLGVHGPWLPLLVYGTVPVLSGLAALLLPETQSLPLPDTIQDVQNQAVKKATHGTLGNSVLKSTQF
Nature of the assay: Inhibitory activity of uric acid transport with human URAT1 expressing cells. In kind it is cell-based. Conditions: COS-7; concentration of 100 μM; 14C-uric acid uptake in COS7 cells transiently expressing human URAT1, 20 μM uric acid, 5 minutes; read-out: Percent inhibition. The procedure: Full length human URAT1 cDNA (NCBI Accession No. NM_144585) was subcloned into expression vector, pcDNA3.1 (Invitrogen). Human URAT1 expression vector was transfected into COS7 cells (RIKEN CELL BANK RCB0539) using Lipofectamine 2000 (Invitrogen). COS7 cells were seeded in collagen-coated 24 well plates (Japan Becton Dickinson) at 90-95% confluency and cultured in D-MEM culture medium (Invitrogen) containing 10% fetal bovine serum (Sanko Junyaku) for 2 hours at 37° C. under the condition of 5% CO2. For 1 well, 2 μL of Lipofectamine 2000 was diluted in 50 μL of OPTI-MEM (Invitrogen) and allowed to stand at room temperature for 7 minutes (hereinafter referred to as Lipo2000-OPTI). For 1 well, 0.8 μg of human URAT1 expression vector was diluted in 50 μL of OPTI-MEM (Invitrogen) and combined gently with Lipo2000-OPTI. After standing at room temperature for 25 minutes, the mixture was added to COS7 cells at 100 μL/well. […]
All tests were performed on hot-plate at 37° C. […] After mixing, the radioactivity was counted in a liquid scintillation counter (PerkinElmer). The radioactivity in COS7 cells not transfected with URAT1 expression vector was also counted under the same condition as control. […]
A: Radioactivity in control B: Radioactivity in the case of addition of test compounds C: Radioactivity in COS7 cells not transfected with URAT1 expression vector
Take `Cn1ccc2cc(-c3cc(C(=O)O)ccn3)cc([N+](=O)[O-])c21` [Example 2, 2-(1-Methyl-7-nitro-1H-indole-5-yl) isonicotinic acid]: the inhibition – broadly, the change of the read-out against control, counted positive when it falls – at 100 µM is over 80%.
